This is an account of results in paper PMC6538733, “Chemical Constituents from Mentha haplocalyx Briq. (Mentha canadensis L.) and Their α-Glucosidase Inhibitory Activities” (Natural Products and Bioprospecting, 2019).

The experiment deals with α-glucosidase. Kind of experiment: pNPG hydrolysis assay, absorbance at […] nm. The format is biochemical.
Take `C=C(C)[C@@H]1CC=C(C)[C@@H](O[C@@H]2O[C@H](CO)[C@@H](O)[C@H](O)[C@H]2O)C1` [compound 4, (4R,6S)-carveol β-D-glucoside]: it took 919 µM to reach half-maximal inhibition (IC50).
`CC1=C(CC[C@H](C)O)C(C)(C)C[C@H](O[C@@H]2O[C@H](CO)[C@@H](O)[C@H](O)[C@H]2O)C1` [compound 11, (3R,9S)-megastigman-5-en-3,9-diol 3-O-β-D-glucopyranoside]: inhibition was half-maximal at 83.4 µM (IC50).
`C=C(C)[C@@H]1CC=C(C)[C@H](O[C@@H]2O[C@H](CO)[C@@H](O)[C@H](O)[C@H]2O)C1` [compound 3, (4R,6R)-carveol β-D-glucoside] showed an IC50 of 516 µM.

The IC50 is the concentration needed to halve the response being measured.
